Molecules are shown by their SMILES. Entries after “also recorded” stand apart in the source; their conditions may differ.

One data set has as its target T1, human OCT2 (Homo sapiens, UniProt O15244).
T1 sequence (O15244 1-555): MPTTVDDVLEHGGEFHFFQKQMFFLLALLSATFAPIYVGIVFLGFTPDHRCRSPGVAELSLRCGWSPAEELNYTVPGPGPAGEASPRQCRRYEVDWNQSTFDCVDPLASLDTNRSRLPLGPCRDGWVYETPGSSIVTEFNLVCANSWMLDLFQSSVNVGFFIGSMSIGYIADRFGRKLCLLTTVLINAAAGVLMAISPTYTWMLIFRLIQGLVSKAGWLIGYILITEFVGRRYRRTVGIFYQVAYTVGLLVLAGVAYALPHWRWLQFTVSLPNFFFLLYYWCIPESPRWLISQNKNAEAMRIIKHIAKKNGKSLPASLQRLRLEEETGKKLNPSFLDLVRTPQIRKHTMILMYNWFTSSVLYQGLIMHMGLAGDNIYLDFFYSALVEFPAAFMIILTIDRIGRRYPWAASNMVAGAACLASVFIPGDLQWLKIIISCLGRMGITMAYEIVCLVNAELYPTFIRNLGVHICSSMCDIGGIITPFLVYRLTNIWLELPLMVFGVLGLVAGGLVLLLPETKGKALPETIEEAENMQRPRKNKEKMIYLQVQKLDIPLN
As to the kind of experiment: Concentration-dependent transport in HEK-OCT2 cells (Km, Vmax). The settings on record: concentrations up to 2000 μM; Km not calculable.

The test system of the next data set is OCT1. Particulars: read-out: Km for OCT1; cited from earlier work.

Experimental for human OCT2: Data are presented in percentage of respective controls (which were set to 100%) or in pmol × mg protein^–1 × min^–1 for concentration-dependent transport as mean ± SEM. All results were normalized to the mean protein concentrations of the cell lysates in the respective control experiments.
Experiments with putative biomarkers in HEK-OCT2 or HEK-MATE1 cells were performed with 6 independent biological replicates, whereas all other experiments involving HEK, MDCK, or Caco-2 cells were performed with 4 independent biological replicates. Pairwise comparisons were analyzed for statistical significance with two-tailed unpaired Student’s t test and multiple comparisons by one-way ANOVA with subsequent Tukey-Kramer multiple comparison test by using GraphPad Prism 10.0.2 (GraphPad Software). A value of P < .05 was considered as statistically significant. Km and Vmax values were determined with Michaelis-Menten enzyme kinetics curve fit using GraphPad Prism 10.0.2.

Turning to `Cn1cnc(CCN)c1` [1-Methylhistamine, 1-methylhistamine], the “Saturation of net uptake in HEK-OCT2 cells” value on human OCT2 is listed as “did not result in a saturation; also recorded: not saturable”. As usually defined, the Km is the concentration of substrate that gives half-maximal velocity. Consider `NCCc1c[nH]c2ccc(O)cc12` [Serotonin, serotonin], for which the Km in the data set with OCT1 was 197 ± 42 µM.

These data come from article PMC12799524, “Putative new biomarkers for renal transporter-mediated drug-drug interactions: Characterization as substrates of organic cation transporter 2, multidrug and toxin extrusion protein 1, and other important drug transporters” (Drug Metabolism and Disposition, 2025).
